Measured values: US8084457B2, “Pharmaceutically active 4,6-disubstituted aminopyrimidine derivatives as modulators of protein kinases” (Lead Discovery Center GmbH, priority 2003, dated 2011)

Columns and labels:
Type in all cases: cell-based
[1] = test system: NFκB-dependent transcriptional activity; test: NFκB-dependent transcriptional activity (NIH 3T3 75E 11/300D8 cell line)
Excerpt: NFκB-dependent Transcriptional Activity:
The used NIH 3T3 75E 11/300D8 cell line is described elsewhere (J. Eickhoff et al., Journal of Biological Chemistry, 2004, 279(10), 9642-9652).
It is known, that CDK9 regulates the NFκB-dependent transitional activity. With Compound 4, Compound 7 and Compound 30 studies were done, to evaluate their effect on NFκB-dependent transcriptional activity.

HBV = HBV replication assay in HepG2-2.2.15 cells
Description: To test anti—HBV-activity of compounds the HBV-producing cell line HepG2-2.2.15 (M. A. Sells, PNAS 1987, 84, 1005-1009) was used. 1.0×10^4 cells were seeded in 96-well microtiter plates in DMEM medium supplemented with 10% FCS. After incubation at 37° C. in 5% CO2 atmosphere for 24 hours the medium was replaced with fresh medium containing the appropriately diluted compound. 3 days later medium was replaced by freshly prepared inhibitor-containing medium and the cells were incubated for further 3 days. Subsequently 200 μl lysis buffer (50 mM Tris-Cl 7.5; 1 mM EDTA 8.0; 0.5% NP40) per well was added. To remove cell debris and […], lysate was centrifuged (15000 rpm, 10 min, 4° C.). Cellular and viral RNA was removed by addition of 2 μl of RNase. 100 μl of the samples were spotted onto an uncharged nylon membrane pre-wetted with PBS (phosphate-buffered saline) using a 96 well-blotting chamber (MINIfold Dot-Blot, Schleicher&Schüll). After further washing with 200 μl PBS per well the membrane was treated twice with 0.5 M NaOH, 1.5 M NaCl (2 min) and 4 times with 0.5 M Tris 7.5, 3 M NaCl (1 min). The nucleic acids were fixed by UV-treatment and used for hybridisabon with a radioactive HBV-fragment prepared from the overgenome-length HBV-plasmid pT-HBV1.3 (L. G. Guidotti et al., Journal of Virology 1995., 69(10), 6158-6169).
The fixed membrane was pre-hybridized in a standard hybridisation buffer (50% formamide, 5×SSPE, 10×Denhards, 1% SDS, 100 μg/ml salmon sperm DNA) for at least 3 hours at 42° C. and hybridised overnight against the labelled HBV-fragment. The preparation of the HBV-fragment with the “Random primers DNA labelling system” (Invitrogen) was done according to the manufacturer's instructions. Hybridized filter were washed at room temperature with 2×SSC, at 62° C. with 2×SSC, 0.5% SDS and at 62° C. with 0.5×SSC, 0.5% SDS. Each washing step was carried out twice. The intensity of the HBV-DNA was quantified using a phosphoimager (Fuji). […] Absorbance was monitored at 570 nm and 600 nm wavelength.

HepG2-2.2.15-cells = test system: HepG2-2.2.15-cells
Description: The fixed membrane was pre-hybridized in a standard hybridisation buffer (50% formamide, 5×SSPE, 10×Denhards, 1% SDS, 100 μg/ml salmon sperm DNA) for at least 3 hours at 42° C. and hybridised overnight against the labelled HBV-fragment. The preparation of the HBV-fragment with the “Random primers DNA labelling system” (Invitrogen) was done according to the manufacturer's instructions. Hybridized filter were washed at room temperature with 2×SSC, at 62° C. with 2×SSC, 0.5% SDS and at 62° C. with 0.5×SSC, 0.5% SDS. Each washing step was carried out twice. The intensity of the HBV-DNA was quantified using a phosphoimager (Fuji). To test the cell viability 0.5×10^4 HepG2-2.2.15-cells were seeded in 96-well-microtiter plates in DMEM medium supplemented with 10% fetal bovine serum. After incubation at 37° C. for 24 hours the medium was replaced by fresh compound-containing medium. 3 days later medium was replaced again by freshly prepared medium containing the inhibitor and the cells were incubated for further 3 days at 37° C. After the incubation period 1/10 volume of Alamar Blue (Serotec) solution containing a growth dependant indicator was added and the cells were incubated for 3 h at 37° C. Absorbance was monitored at 570 nm and 600 nm wavelength.

c1ccc(COc2ccccc2-c2cc(NCCc3ccncc3)ncn2)cc1 [Compound 7]
inhibition of NFκB (in words, compared with Compound 30) [1]: less effectively
HBV replication (in words) (HBV): inhibited replication
viability of the cells in the HBV replication assay (HepG2-2.2.15-cells): without affecting viability
